Measured values reported in PMC9585589 (ACS Chemical Neuroscience, 2022).
Values joined by “and” are separate entries in the source; they are usually repeats but may differ in a detail not shown here. Identical values can stand only once. Like-named read-outs stand apart in the source and are kept apart here.

Legend:
human CB1 receptor [1] = biological target: T1, human CB1 receptor (Homo sapiens, UniProt P21554); test: biochemical
Method: Ten compound concentrations equally spaced on a log scale (10^–3 to 10^–9 M) were incubated in triplicate with membrane preparations from CHO-K1 cells expressing the human CB1 receptor (5 μg per well) (Perkin Elmer, cat. no. ES-110-M400UA) in an assay buffer containing 50 mM Tris-HCl, pH = 7.4, 1 mM EGTA, 3 mM MgCl2, 100 mM NaCl and 30 μM GDP) in the presence of 0.08 nM [^35S]GTPγS (specific activity: 1250 Ci/mmole, Perkin Elmer). Non-specific binding was determined with 100 μM of unlabeled GTPγS. […] The final DMSO concentration in the assay was 5%. The reaction mixture was incubated for 90 min. at 30°C . Next, the samples were deposited under vacuum with the FilterMate Harvester® (Perkin Elmer, USA) onto Unifilter® GF/B Plates (Perkin Elmer, USA) presoaked with wash buffer (50 mM Tris-HCl, pH = 7.4). The samples were then rapidly washed with 2 ml of wash buffer. Filter plates were dried for 30 min. at 50 °C and 40 μL of MicroScint PS (Perkin Elmer, USA) scintillation fluid was added to each well. Radioactivity was counted in a Trilux MicroBeta^2 counter (Perkin Elmer, USA). Data were analyzed with GraphPad Prism 5.0 software. Curves were fitted with three-parameter non-linear regression model.

human CB1 receptor [2] = biological target: T1, human CB1 receptor; test: biochemical; format: binding; set-up: purchased Merck HTS019M; host or cells: Chem-1 cells
Source text: Compounds selected for the in vitro binding assay from the first iteration of VS were purchased via MolPort, SIA, Riga, Latvia and Biopurify Phytochemicals Ltd., Chengdu, China. Compounds from the second iteration were purchased from MolPort, SIA, Riga, Latvia and Chemspace, SIA, Riga, Latvia (Supporting Information S3). […] Membranes from cells overexpressing the human CB1 receptor (ChemiScreen CB1 Cannabinoid Receptor Membrane Preparation, cat. no. HTS019M) as well as MgCl2, CaCl2, Trizma Base, NaCl, polyethylenimine (PEI) and dimethyl sulfoxide (DMSO) were purchased from Merck (USA). Bovine serum albumin (BSA) was obtained from Pol-Aura (Poland).
Compounds were dissolved in 50% DMSO and added to the reaction mixture at 10 concentrations equally spaced on a log scale (10^–10 to 10^–4.5 M). The final DMSO concentration was 5%. […] The reaction mixture (500 μL) was incubated for 1.5 h at 30°C . Before harvesting, Whatman GF/B Filter Paper (Brandel, USA) was presoaked with 0.33% PEI buffer for 30 min. and then washed with 2 ml of 50 mM Tris-HCl buffer (pH = 7.4) and 0.5% BSA to minimize non-specific binding. The reaction was terminated by depositing the samples onto GF/B filter paper with the Brandel M-24 Cell Harvester (Brandel, USA). Samples were then rapidly washed 3 times with 2 ml of ice-cold wash buffer (50 mM Tris-HCl pH 7.4, 500 mM NaCl) to separate the bound radioligand from free. Filters were then air-dried for 1 h at 60°C . After drying, filter discs were placed on a flexible 24-well plate and 500 μL of EcoScint-20 scintillant was added to each well. Plates were counted (2 min. per well) in a Trilux MicroBeta^2 2450 scintillation counter (Perkin Elmer, USA). Data were analyzed with GraphPad Prism 5.0 software.[89]

human CB1 receptor [3] = biological target: T1, human CB1 receptor; format: biochemical; conditions: in words
[4] = set-up: method as in MedChemExpress product data sheet; conditions: ref MedChemExpress product data sheet, cited from earlier work
human CB1 = conditions: one per compound, cited from earlier work
CB1 = conditions: known CB1 ligands; ref 55 (rimonabant), 56 (nabilone), 17 (bazedoxifene); cited from earlier work
[5] = CHO-K1 membranes, WIN 55,212-2 (3 μM) as stimulating ligand, read-out: CB1 inhibition pIC50 (converted)
[6] = [3H]CP-55,940 displacement, membranes of Chem-1 cells expressing human CB1, read-out: pKi ± SEM (converted)
[7] = CB1 inhibition IC50 (μM, 95% CI)
[8] = CB1 agonists, Table S8, ref SI (1)-(19)
[9] = CB1 antagonists/inverse agonists, Table S9, ref SI (20)-(38)
[10] = read-out: CB1 inhibition IC50 (μM, 95% CI)

T1 sequence (P21554 whole entry): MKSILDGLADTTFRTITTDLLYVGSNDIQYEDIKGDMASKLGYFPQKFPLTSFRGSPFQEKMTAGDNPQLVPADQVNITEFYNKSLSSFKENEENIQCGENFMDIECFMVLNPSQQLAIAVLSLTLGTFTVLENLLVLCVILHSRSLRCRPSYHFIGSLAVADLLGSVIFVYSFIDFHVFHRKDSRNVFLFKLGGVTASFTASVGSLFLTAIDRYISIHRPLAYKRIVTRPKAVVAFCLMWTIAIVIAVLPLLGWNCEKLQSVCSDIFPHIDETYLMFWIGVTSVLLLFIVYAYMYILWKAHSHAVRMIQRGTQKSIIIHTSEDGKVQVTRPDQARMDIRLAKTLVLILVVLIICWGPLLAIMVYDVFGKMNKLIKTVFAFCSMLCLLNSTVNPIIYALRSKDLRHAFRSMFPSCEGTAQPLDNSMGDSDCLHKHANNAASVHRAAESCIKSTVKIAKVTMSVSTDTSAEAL

COc1cc(-c2c3cn[nH]c3nc3c2oc2c(O)c(O)ccc23)ccc1OCc1ccc(C(C)C)cc1 [Compound 30]
IC50 (human CB1 receptor [1]; [5]): 2.09 µM | Emax (human CB1 receptor [1]; CHO-K1 membranes, read-out: CB1 stimulation Emax (%)): 126 ± 5% | EC50 (human CB1 receptor [1]; CHO-K1 membranes, read-out: CB1 stimulation pEC50 (converted)): 417 nM | Ki (human CB1 receptor [2]; Ki (μM, 95% CI)): 0.8 µM | Ki (human CB1 receptor [2]; [6]): 0.851 µM | intrinsic activity (human CB1 receptor [3]): mixed CB1 partial agonist/antagonist

COc1cc(O)c2c(=O)cc(-c3ccc(OC)c(-c4c(O)cc(O)c5c(=O)cc(-c6ccc(O)cc6)oc45)c3)oc2c1 [Compound 15, ginkgetin]
IC50 (human CB1 receptor [1]; [7]): 63 µM | Ki (human CB1 receptor [2]; Ki (μM, 95% CI)): 8.6 µM | Ki (human CB1 receptor [2]; [6]): 8.71 µM | intrinsic activity (human CB1 receptor [3]): antagonists

COc1cccc2c1ccn2CCNC(=O)[C@H](Cc1cn(C)c2ccccc12)NC(=O)OC(C)(C)C [Compound 43]
IC50 (human CB1 receptor [1]; [5]): 1.86 µM | Ki (human CB1 receptor [2]; Ki (μM, 95% CI)): 6.6 µM | intrinsic activity (human CB1 receptor [3]): antagonists

CC(C)OC(=O)CCC/C=C\C[C@@H]1[C@@H](/C=C/[C@@H](O)COc2cccc(C(F)(F)F)c2)[C@H](O)C[C@@H]1O [Compound 9, travoprost]
IC50 (human CB1 receptor [1]; [7]): 232 µM | IC50 (human CB1 receptor [1]; [5]): 229 µM | Solubility ([4]; 10% DMSO >> 40% PEG300 >> 5% Tween-80 >> 45% saline): ≥ 2.08 mg/mL and ≥ 4.16 mM | Solubility ([4]; 10% DMSO >> 90% (20% SBE-β-CD in saline)): ≥ 2.08 mg/mL and ≥ 4.16 mM | Solubility ([4]; 10% DMSO >> 90% corn oil): ≥ 2.08 mg/mL and ≥ 4.16 mM | Solubility in DMSO ([4]; in vitro): ≥ 41.67 mg/mL and ≥ 83.25 mM | Ki (human CB1 receptor [2]; Ki (μM, 95% CI)): 3.6 µM | Ki (human CB1 receptor [2]; [6]): 3.98 µM | intrinsic activity (human CB1 receptor [3]): antagonists

CCCCCCC(C)(C)c1ccc([C@@H]2C[C@H](O)C[C@@H]3CC[C@H](CO)C[C@H]32)c(O)c1 [CP-55,244]
Ki (human CB1; [8]): 1 nM

O=C(NCc1ccc(F)cc1)c1ccc(S(=O)(=O)n2cc(N3CCCCC3)c3ccccc32)cc1 [PipISB]
Ki (human CB1; [9]): 1.5 nM

CCCCC/C=C\C/C=C\C/C=C\C/C=C\CCCC(=O)NCCO [Anandamide]
Ki (human CB1; [8]): 70 nM

Cc1c(C(=O)NN2CCOCC2)nn(-c2ccc(Cl)cc2Cl)c1-c1ccc(I)cc1 [AM-281]
Ki (human CB1; [9]): 12 nM

CCCCCCC(C)(C)c1cc(O)c2c(c1)OC(C)(C)[C@@H]1CC=C(C(=O)O)C[C@@H]21 [Ajulemic acid]
Ki (human CB1; [8]): 5.7 nM

C[C@H](NC(=O)C(C)(C)Oc1ccc(C(F)(F)F)cn1)[C@@H](Cc1ccc(Cl)cc1)c1cccc(C#N)c1 [Taranabant]
Ki (human CB1; [9]): 0.13 nM

CC(C)(CCCCCCN=C=S)c1cc(O)c2c(c1)OC(C)(C)[C@@H]1CC[C@@H](CO)C[C@@H]21 [AM-841]
Ki (human CB1; [8]): 1.14 nM

O=C(c1ccc2c(c1)c1ccccc1n2CCCCCF)c1cccc2ccccc12 [EG-2201]
Ki (human CB1; [8]): 22.4 nM

CCCCC/C=C\C/C=C\C/C=C\C/C=C\CCCC(=O)NCCCl [ACEA]
Ki (human CB1; [8]): 5.3 nM

CC1=CC[C@@H]2[C@@H](C1)c1c(O)cc(C(C)(C)CCCCCCBr)cc1OC2(C)C [AM-11542]
Ki (human CB1; [8]): 0.11 nM

CC(C)[C@H](N=C(NS(=O)(=O)c1ccc(Cl)cc1)N1C[C@H](c2ccccc2)C(c2ccc(Cl)cc2)=N1)C(N)=O [JD-5037]
Ki (human CB1; [9]): 0.35 nM

COc1ccccc1C(CCNC(C)c1ccc(Cl)cc1)c1ccc(OC(C)C)cc1 (centres unmarked) [Compound 34]
IC50 (human CB1 receptor [1]; [5]): 3.72 µM | Ki (human CB1 receptor [2]; [6]): 2.69 µM | intrinsic activity (human CB1 receptor [3]): antagonists

CCCCCn1cc(C(=O)c2cccc3ccccc23)cc1-c1ccccc1F [JWH-307]
Ki (human CB1; [8]): 7.7 nM

COc1ccc(-c2cc(-c3ccccc3)cc(-c3ccccc3O)n2)c(OC)c1 [Compound 38]
IC50 (human CB1 receptor [1]; [10]): 140 µM | Ki (human CB1 receptor [2]; [6]): 2.51 µM | intrinsic activity (human CB1 receptor [3]): antagonists

CCNC1(C(N)=O)CCN(c2cnc(-c3ccc(Cl)cc3)c(-c3ccc(Cl)cc3Cl)n2)CC1 [CHEMBL496293]
Ki (human CB1; [9]): 0.91 nM

COC(=O)[C@@H](NC(=O)c1ccc2c(c1)c1ccccc1n2CC1CCCCC1)C(C)(C)C [MDMB-CHMCZCA]
Ki (human CB1; [8]): 5.75 nM

N#Cc1c(Oc2cccc(OS(=O)(=O)CCCC(F)(F)F)c2)cccc1C(F)(F)F [BAY 59-3074]
Ki (human CB1; [8]): 48.3 nM

Cc1c(-c2ccc(O)cc2)n(Cc2ccc(OCCN3CCCCCC3)cc2)c2ccc(O)cc12 [bazedoxifene]
pKi (CB1): 6.1[17]

C/C(N)=N\C(=N/S(=O)(=O)c1ccc(C(F)(F)F)cc1)N1C[C@H](c2ccccc2)C(c2ccc(Cl)cc2)=N1 [MRI-1867]
Ki (human CB1; [9]): 2.3 nM

Cc1c(C(=O)NN2CCCCC2)nn(-c2ccc(Cl)cc2Cl)c1-c1ccc(C#CCCO[N+](=O)[O-])cc1 [AM-6538]
Ki (human CB1; [9]): 3.4 nM

CCCCCCn1cc(C(=O)c2cccc3ccccc23)cc1-c1ccccc1 [JWH-147]
Ki (human CB1; [8]): 11 nM

CCCCC/C=C\C/C=C\C/C=C\C/C=C\CCCCOC(CO)CO [Noladin ether]
Ki (human CB1; [8]): 25 nM

CS(=O)(=O)N(c1cc(F)cc(F)c1)C1CN(C(c2ccc(Cl)cc2)c2ccc(Cl)cc2)C1 [Drinabant]
Ki (human CB1; [9]): 11 nM

CCNC1(C(N)=O)CN(c2cnc(-c3ccc(C(F)(F)F)cc3)c(-c3ccnc(Cl)c3)n2)C1 [CHEMBL498783]
Ki (human CB1; [9]): 1.2 nM

CCOc1ccc(Cc2nc3cc(N(C)S(=O)(=O)c4cccs4)ccc3n2CC2CCCCC2)nc1 [AZ-11713908]
Ki (human CB1; [8]): 3 nM

CCCCCn1cc(C(=O)c2cccc3ccccc23)c2ccccc21 [JWH-018]
Ki (human CB1; [8]): 9 nM

COc1ccc([C@@H](CC(=O)NCc2cccc3[nH]ccc23)c2cc3c(cc2O)OCO3)cc1 [Compound 32]
IC50 (human CB1 receptor [1]; [5]): 33.1 µM | IC50 (human CB1 receptor [1]; [10]): 40 µM | Ki (human CB1 receptor [2]; Ki (μM, 95% CI)): 6.8 µM | Ki (human CB1 receptor [2]; [6]): 6.31 µM | intrinsic activity (human CB1 receptor [3]): antagonists

Cc1nc2c(-c3ccc(Cl)cc3)n(-c3ccccc3Cl)nc2c(=O)n1CC(F)(F)F [CHEMBL201602]
Ki (human CB1; [9]): 0.6 nM

Cc1c(-c2cn(-c3ccccc3)cn2)nn(-c2ccccc2Cl)c1-c1ccc(Cl)cc1 [CHEMBL568221]
Ki (human CB1; [9]): 3.8 nM

CC1(C)C(C(=O)c2cn(CCCCCF)c3ccccc23)C1(C)C [XLR-11]
Ki (human CB1; [8]): 24 nM

CCCCCCC(C)(C)c1cc(O)c2c(c1)OC(C)(C)C1CCC(=O)CC21 (centres unmarked) [nabilone]
pKi (CB1): 8.7[56]

OCCN1CCN(CC/C=C2/c3ccccc3Sc3ccc(C(F)(F)F)cc32)CC1 [Compound 33, Flupentixol]
Solubility ([4]; 10% DMSO >> 40% PEG300 >> 5% Tween-80 >> 45% saline, listed as Flupentixol dihydrochloride): ≥ 2.5 mg/mL and ≥ 4.93 mM | Solubility ([4]; 10% DMSO >> 90% (20% SBE-β-CD in saline), listed as Flupentixol dihydrochloride): ≥ 2.5 mg/mL and ≥ 4.93 mM | Solubility ([4]; 10% DMSO >> 90% corn oil, listed as Flupentixol dihydrochloride): ≥ 4.93 mM and ≥ 2.5 mg/mL | Solubility in H2O ([4]; in vitro, need ultrasonic, listed as Flupentixol dihydrochloride): 100 mg/mL and 197.07 mM | Solubility in DMSO ([4]; in vitro, listed as Flupentixol dihydrochloride): 33.33 mg/mL and 65.68 mM | pKi ± SEM (human CB1 receptor [2]; [3H]CP-55,940 displacement, membranes of Chem-1 cells expressing human CB1): 4.27 ± 0.04 | Ki (human CB1 receptor [2]; read-out: Ki (μM, 95% CI)): 53 µM
